Results taken from US10716750B2, “Topical ophthalmic formulations of endothelin receptor antagonists” (Retinset, S.L., priority 2015, dated 2020).
“Also recorded” adds a separate entry of the source.

Tests used:
[1] = system: diabetic mice (db/db); test: Immunohistochemical evaluation of apoptosis (TUNEL staining of retina sections) after topical ocular treatment; format: in vivo
Description: (§1) In tests 12 male db/db mice aged 10 weeks (Harlan Laboratories, Inc.) were used, and were divided into two groups: 6 of these mice were treated with a formulation of the present invention, and 6 mice with a sodium chloride solution, as described below. 6 non-diabetic (db/+) mice matched by age were also used as the control group.
(§2) On day 15, approximately 1 hour before necropsy, a drop of formulation of the present invention or vehicle was instilled in the eyes of the animals. Following euthanasia, eyes were enucleated. The neuroretina from one of the eyes was extracted, frozen in liquid nitrogen and stored at a temperature of −80° C. The other eye was fixed with a solution of 4% paraformaldehyde, processed routinely, and embedded in paraffin blocks.
Immunohistochemical analysis for apoptosis assessment was carried out TUNEL (Terminal Transferase dUTP Nick-End Labeling) staining using the DeadEnd Fluorometric TUNEL System Kit (Promega, Madison, Wis., USA).
Cryosections of retina were permeabilized by incubation on ice for 2 min with 0.1% Triton X-100 and 0.1% sodium citrate freshly prepared solution. The secondary antibody was Alexa 488 goat anti-rabbit (Invitrogen, San Diego Calif., USA). For evaluation by Laser Scanning Confocal microscopy, the excitation wavelength was 488 nm and detection in the range from 515 to 565 nm, which corresponds to green colour.
The evaluation was carried out in the retina of each animal and a minimum of 10 sections per retina.

[2] = system: diabetic mice (db/db); test: Determination of glial activation (GFAP staining score, confocal microscopy of retina sections) after topical ocular treatment; format: in vivo
Description: as §1, §2
Glial activation was evaluated by Laser Scanning Confocal microscopy using specific antibodies against GFAP (glial fibrillary acidic protein). Retina sections were fixed in acidic methanol at −20° C. for 2 min, followed by three washes with phosphate buffer (PBS) for 5 min each. Retina sections were permeabilized with a tris buffer (TBS) with 0.025% Triton® X-100 and incubated for 2 hours at room temperature in a blocker solution composed of 1% BSA (serum albumin bovine) and 10% goat serum in 10% PBS. Retina sections were incubated with rabbit anti-GFAP antibody (Abcam Ltd, Cambridge, UK; 1:500 dilution prepared in blocking solution) overnight at 4° C. in a humid atmosphere. After three washes with PBS solution, 5 minutes each, the retina sections were incubated with the secondary antibody Alexa 488 goat anti-rabbit (Invitrogen, San Diego Calif., USA) at a 1:200 dilution prepared in blocking solution. Retina sections were washed three times with PBS, counterstained with Hoechst, mounted with Mounting Medium Fluorescence (Prolong, Invitrogen) and mounted with a coverslip. Comparative digital images from samples were recorded with FluoView FV 1000 Laser Scanning Confocal microscope Olympus using identical settings for brightness and contrast.
A scoring system based on the extent of GFAP staining described in Anderson et al., Glial and endothelial blood-retinal barrier responses to amyloid-β in the neural retina of the rat, Olin. Ophthalmol., 2008, 2, 801-816, was used in order to assess the degree of glial activation. This scoring system was as follows: • Score 1: Müller cell endfeet/ ganglion retinal cell layer (GCL) only; • Score 2: Müller cell endfeet region/GCL plus a few proximal processes; • Score 3: Müller cell endfeet plus many processes, but not extending to the outer nuclear layer (ONL) of the retina; • Score 4: Müller cell endfeet plus processes throughout with some in the ONL; • Score 5: Müller cell endfeet plus lots of dark processes from GCL to outer margin of ONL.
The score was assessed on the retina of each animal and a minimum of 10 sections per retina.

Q: With `COc1ccccc1Oc1c(NS(=O)(=O)c2ccc(C(C)(C)C)cc2)nc(-c2ncccn2)nc1OCCO` [Bosentan] as the compound, how does the “apoptosis in all retinal layers (in words)” value ([1]; 14 days, twice per day, versus control (db/+) and vehicle-treated diabetic animals) read?
A: Its value is “reduced apoptosis”.

Q: What about the “TUNEL staining-positive cell percentage, GCL, mean (standard deviation)” value ([1]; topical ocular, twice daily for 14 days, ganglion cell layer, p <0.001 vs vehicle) of the same compound?
A: Its value is 1.42 (0.38) %.

Q: What about the “TUNEL staining-positive cell percentage, INL, mean (standard deviation)” value ([1]; topical ocular, twice daily for 14 days, inner nuclear layer, p <0.001 vs vehicle) of the same compound?
A: The value was 0.36 (0.31) %.

Q: What about the “TUNEL staining-positive cell percentage, ONL, mean (standard deviation)” value ([1]; topical ocular, twice daily for 14 days, outer nuclear layer, p <0.001 vs vehicle) of the same compound?
A: The value was 0 (0.07) %.

Q: What about the “glial activation / reactive gliosis (in words)” value ([2]; 14 days, twice per day, versus vehicle-treated diabetic animals) of the same compound?
A: The value was “significant decrease of reactive gliosis; also recorded: less glial activation”.

Q: And the “degree of glial activation (percentage for each score of GFAP expression), Score 1” value ([2]; one 5 μl drop of formulation of Example 1 per eye, twice daily for 14 days, Score 1: Müller cell endfeet/GCL only)?
A: The value was 85%.

Q: What about the “degree of glial activation (percentage for each score of GFAP expression), Score 2” value ([2]; one 5 μl drop of formulation of Example 1 per eye, twice daily for 14 days, Score 2: endfeet region/GCL plus a few proximal processes) of the same compound?
A: The value was 15%.

Q: What about the “degree of glial activation (percentage for each score of GFAP expression), Score 3” value ([2]; one 5 μl drop of formulation of Example 1 per eye, twice daily for 14 days, Score 3: endfeet plus many processes, not extending to ONL) of the same compound?
A: The value was 0%.

Q: What about the “degree of glial activation (percentage for each score of GFAP expression), Score 4” value ([2]; one 5 μl drop of formulation of Example 1 per eye, twice daily for 14 days, Score 4: endfeet plus processes throughout with some in the ONL) of the same compound?
A: The value was 0%.

Q: And the “degree of glial activation (percentage for each score of GFAP expression), Score 5” value ([2]; one 5 μl drop of formulation of Example 1 per eye, twice daily for 14 days, Score 5: endfeet plus lots of dark processes from GCL to outer margin of ONL)?
A: The value was 0%.

Q: What about the “share with GFAP score less than 2” value ([2]; two weeks of administration) of the same compound?
A: Its value is 85%.

Q: What about the “GFAP score of the treated animals” value ([2]; two weeks of administration, all cases, score scale 1-5) of the same compound?
A: Its value is < 3.
